In US20090018021A1, “Methyl jasmonate decreases fruit detachment force of grapes” (Regents of the University of California, priority 2006, published 2009):
Several values for one entry are separate records, joined by “and”; a condition that tells them apart may be missing. Equal entries are not always repeated. Values belong to the compound of their own block, whether it stands above or below them.

Experiments:
[1] = tested on: Thompson Seedless grapevines; assay: Fruit drop (berry abscission) from treated vines, Thompson Seedless experiment; assay type: in vivo, grape; conditions: for Berry abscission observed in plots: ten days after treatment, all 26 solutions compared; for Percent fruit drop (dry wt/dry wt): 10 days after treatment
Experimental: (§1) An experiment was conducted in a 40-year-old Thompson Seedless vineyard at the Kearney Agricultural Center in Parlier, California. The site was typical of conventional raisin vineyards, with head-trained, cane-pruned vines on a two-wire T-shaped trellis with a 0.6 m cross arm. The soil was a deep Hanford fine sandy loam.
(§2) The vineyard was divided into plots consisting of vine sections (within-row spaces between two adjacent vine trunks) of uniform appearance and crop load. Each plot was surrounded by guard vines within and between rows. Treatments consisted of 26 different solutions made up of various potential abscission agents (Table 1). Because the concentrations varied widely between agents, each solution was considered a different treatment, and a randomized complete block design was used. All treatments, except for coronatine, were replicated four times. Due to a lack of material, coronatine was only applied to two plots; therefore, data from that treatment were not subjected to statistical analysis though observations were made.
(§3) Composite berry samples were collected weekly to monitor soluble solids accumulation by the fruits. Samples consisted of about 100 berries collected from the top, middle and bottom of about 33 randomly selected clusters. Berries were homogenized in a blender, their juice filtered, and soluble solids measured with a temperature compensating digital refractometer (Palette 101, Atago, Farmingdale, N.Y.). Once the fruits amassed sufficient soluble solids for raisin making (>19 Brix), abscission agents were dissolved or dispersed in water with adjuvant added (0.1%, v/v, Latron B-1956™, Britz, Parlier, Calif.) except MeJA solutions which contained 0.2% adjuvant. Control solutions contained the adjuvant only (0.2% v/v). Immediately after their preparation, solutions were applied to the vines of each plot with a gasoline-powered back-pack sprayer (Solo, Newport News, R.I.) until runoff. Vines within harvest pruned (HP) plots were not treated with any solutions, but their canes were severed on the same day that solutions were applied.
(§4) The soil surface within each plot was covered with ground cloth to collect any berries that might fall from the canopy. […] In those plots and in the control and HP plots, all abscised berries were collected from the ground cloth into paper bags and placed in a forced air oven (60 C) until they reached a constant weight. Clusters of grapes on vines from all the plots were carefully harvested and brought into a laboratory where fruit detachment force (FDF) measurements were made. Any grapes that detached from the vines at harvest were considered to be retained by the vine until harvest. These berries were collected into paper bags and placed in a forced air oven to dry.
(§5) Three representative clusters were selected from all the clusters of each plot and ten rachis sections from the top, middle, and bottom of the three clusters were removed by cutting the rachis with shears. A berry from each section was placed in a jig attached to a force gauge (DPS-11, Imada Inc., Northbrook, Ill.). The rachis was pulled parallel to the fruit axis until it separated from the fruit. The force required to detach each berry from the rachis in grams-force was recorded as the fruit detachment force. The condition of each detached berry was noted, and the berries were placed in paper bags along with all the other berries that were picked from that plot. These berries were also placed in the forced air oven and dried to a constant weight. The proportion of berries that abscised from the vine was calculated on a dry weight basis by dividing the dry weight of the abscised berries in each plot by the combined weight of the retained and abscised berries in that plot. Finally, canopy damage in each plot was inspected visually and assigned a rating of 0 (no obvious foliar damage), 1 (appearance of slight foliar damage), 2 (appearance of moderate foliar damage), or 3 (appearance of severe foliar damage).

[2] = tested on: citrus trees; conditions: cited from earlier work
[3] = tested on: Thompson Seedless grapevines; assay: Fruit detachment force (FDF), Thompson Seedless experiment; assay type: in vivo, grape; conditions: for FDF: ten days after treatment
Experimental: as §1, §2, §3, §4, §5

[4] = tested on: Thompson Seedless grapevines; assay: Visual canopy damage rating, Thompson Seedless experiment; assay type: in vivo, grape; conditions: ten days after treatment
Excerpt: as §2
Composite berry samples were collected weekly to monitor soluble solids accumulation by the fruits. Samples consisted of about 100 berries collected from the top, middle and bottom of about 33 randomly selected clusters. […] Control solutions contained the adjuvant only (0.2% v/v). Immediately after their preparation, solutions were applied to the vines of each plot with a gasoline-powered back-pack sprayer (Solo, Newport News, R.I.) until runoff. Vines within harvest pruned (HP) plots were not treated with any solutions, but their canes were severed on the same day that solutions were applied.
as §5

[5] = tested on: Thompson Seedless grapevines; assay: Bud break and shoot growth six months after treatment, Thompson Seedless experiment; assay type: in vivo, grape; conditions: 2000 ppm, evaluated six months later
Experimental: Each plot was inspected again six months later when bud break and shoot growth were evaluated. To evaluate bud break, plots received one of the following scores; 0=shoots emerged from 0-20% of nodes; 1=shoots emerged from 20-40% of nodes, 2=shoots emerged from 40-60% of nodes, 3=shoots emerged from 60-80% of nodes, or 4=shoots emerged from 80-100% of nodes. Shoot growth in each plot was also evaluated on a five-point scale, based on the proportion of shoots that had progressed to the five-leaf stage (Eichorn-Lorenz stage 12; Eichorn and Lorenz, Phaenologische Entwicklungsstadien der Rebe. Nachrichtenbl. Deut. Pflanzenschutzd. (Braunschweig) 29:119-120 (1977)).

[6] = tested on: Crimson Seedless grapes; assay: Abscission and fruit detachment force, Crimson Seedless experiment; assay type: in vivo, grape
Experimental: An experiment was conducted in a fourteen-year-old vineyard of own-rooted Crimson Seedless grapes on an open-gable trellis. Individual clusters of grapes were sprayed to runoff with one of four solutions containing 0, 1125, 2250, or 4500 ppm MeJA and an adjuvant (0.2% v/v, Latron-B 1956). On Day 0, treatments were applied in a randomized, complete block design with clusters as observational units, and vines as blocks. Each spray treatment was applied to 4 replicate clusters. During treatment, clusters were surrounded with plastic shields to protect other clusters from overspray and runoff. The day after treatment, each cluster was enclosed in a plastic mesh bag to collect any berries that might abscise. Clusters were harvested 14 DAT. Ten rachis sections were collected from each cluster and FDF was measured as described previously. The condition of the detached berries was noted, and the berries from each cluster were then separately weighed and homogenized in a blender. Juices were filtered and soluble solids, pH, and titratable acidity of the filtered juices were determined using standard methods.
All data were subjected to analysis of variance using the general linear models procedure (PROC GLM) of SAS statistical software (SAS Inst., Cary, N.C.). Duncan's New Multiple Range Test was used to separate treatment means. […]

[7] = tested on: Cabernet Sauvignon grapevines; assay: Fruit detachment force and fruit drop, Cabernet Sauvignon; assay type: in vivo, grape; conditions: 4500 ppm, 14 DAT
Experimental: (§6) An experiment was conducted in a nine-year-old vineyard of own-rooted Cabernet Sauvignon and Merlot grapevines on a vertical two-wire […]. Whole vines were sprayed to runoff on Day 0 with solutions containing 0 or 4500 ppm MeJA and an adjuvant (Latron B-1956; 0.2% v/v) in a completely randomized design replicated four times. On 14 DAT, four representative clusters were collected from each of four vines and ten rachis sections were prepared from each cluster. Fruit detachment force was measured from berries attached to each section, as described previously. Condition of the detached berries was noted, and all the berries from each cluster were counted, weighed, and homogenized in a blender. The juice from each sample was filtered and soluble solids, pH, and titratable acidity of the filtered juices were determined using standard methods. All data were subjected to analysis of variance using the general linear models procedure (PROC GLM) of SAS statistical software (SAS Inst., Cary, N.C.). Duncan's New Multiple Range Test was used to separate treatment means.

[8] = tested on: Merlot grapevines; assay: Fruit detachment force and fruit drop, Merlot; assay type: in vivo, grape; conditions: 4500 ppm, 14 DAT
Experimental: as §6

SMILES: CC[C@H]1C=C(C(=O)N[C@@]2(C(=O)O)C[C@@H]2CC)[C@H]2CCC(=O)[C@H]2C1 [Coronatine]
- Fruit drop (observation, not statistically analysed) ([1]; 200 ppm, two plots only, 10 DAT): fruit drop appeared similar to that of vines treated with 2250 ppm MeJA
- Berry abscission observed in plots [1]: berry abscission was only observed in plots treated with MeJA or coronatine
- Defoliation expected ([2]; citrus (Burns et al., 2003)): chlorosis. Expect ~10% defoliation.

- Appearance of shoots [5]: cupped leaves and short internodes
SMILES: CC1(C)OC[C@@H]2O[C@@]3(C(=O)O)OC(C)(C)O[C@H]3[C@@H]2O1 [Dikegulac]
- FDF ([3]; 20 ppm): 0.291 abc kg
- FDF ([3]; 200 ppm): 0.27 ab kg
- FDF ([3]; 1000 ppm): 0.288 ab kg
- FDF ([3]; 2000 ppm): 0.176 efg kg
- Canopy damage (0-3; none-severe) ([4]; 20 ppm): 1.00 cd
- Canopy damage (0-3; none-severe) ([4]; 200 ppm): 1.25 bcd
- Canopy damage (0-3; none-severe) ([4]; 1000 ppm): 0.5
- Canopy damage (0-3; none-severe) ([4]; 2000 ppm): 1.50 bcd
- Leaf loss expected ([2]; citrus, at certain times of the season (Pozo et al, 2004)): (Pozo et al, 2004). Expect 15-20%

SMILES: CC/C=C\CC1C(=O)CCC1CC(=O)OC (stereo not drawn) [MeJA, methyl jasmonate]
- Percent fruit drop (dry wt/dry wt) ([1]; 45 ppm): 0.26 c percent
- Percent fruit drop (dry wt/dry wt) ([1]; 450 ppm): 6.37 c percent
- Percent fruit drop (dry wt/dry wt) ([1]; 4500 ppm): 50% and 50.71 a percent
- Berry abscission observed in plots [1]: berry abscission was only observed in plots treated with MeJA or coronatine
- Abscised berries observed ([1]; within 2 days after treatment, ≧450 ppm (2 mM)): abscised berries were observed
- FDF ([3]; 45 ppm): 0.169 fg·kg
- FDF ([3]; 450 ppm): 0.124 gh kg
- FDF ([3]; 2250 ppm): 0.079 hi kg
- FDF ([3]; 4500 ppm): 0.052 i kg
- Reduction of FDF compared with cane severance ([3]; any concentration ≧450 ppm, 10 DAT): reduced FDF at least as effectively as cane severance
- Reduction of FDF compared to non-treated vines ([3]; lowest concentration tested, 10 DAT): reduced FDF by half
- FDF of berries retained after harvest versus concentration applied ([6]; 14 DAT, 0-4500 ppm): FDF decreased as a linear function of the concentration of MeJA applied
- Abscission of grapes from clusters ([6]; within 14 DAT, clusters sprayed with 1125, 2250 or 4500 ppm): did not abscise from any clusters
- Fruit drop (appeared, not measured) [7]: less than 10%
- Reduction of FDF compared to non-treated vines [7]: 66%
- Fruit drop (appeared, not measured) [8]: less than 10%
- Reduction of FDF compared to non-treated vines [8]: 75%
- Fruit on treated trees dropped ([2]; citrus trees, 2250-4500 ppm, within 10 DAT (Hartmond et al. 2000)): about 20%
- FDF less than fruit from non-treated trees ([2]; citrus trees, solutions of 2250-4500 ppm (Hartmond et al. 2000)): 75-80%

SMILES: NC1(C(=O)O)CC1 [VBC-30069]
- FDF ([3]; 50 ppm): 0.261 cd kg
- FDF ([3]; 150 ppm): 0.266 abcd kg

SMILES: Cc1n[nH]c(Cl)c1[N+](=O)[O-] [CMNP, 5-chloro-3-methyl-4-nitro-1H-pyrazole]
- FDF ([3]; 20 ppm): 0.244 cd kg
- FDF ([3]; 200 ppm): 0.156 fg·kg
- FDF ([3]; 1000 ppm): 0.161 fg·kg
- FDF ([3]; 2000 ppm): 0.182 ef kg
- Canopy damage (0-3; none-severe) ([4]; 20 ppm): 1.25 cde
- Canopy damage (0-3; none-severe) ([4]; 200 ppm): 1.25 bcd
- Canopy damage (0-3; none-severe) ([4]; 1000 ppm): 1.75 bc
- Canopy damage (0-3; none-severe) ([4]; 2000 ppm): 2.75 a
